Measured values published in US5792457A, “Antibody recognizing endothelial cell ligand for leukocyte CR3” (priority 1995, dated 1998).

Key:
B. pertussis = details: in vivo; cited from earlier work
[1] = system: Factor Xa procoagulant activity on THP-1 cells; experiment: Generation of Factor Xa by monocytes (THP-1), clotting assay; type: cell-based; details: for Factor Xa / Clotting time: peptides 0.5 mM; for reduction of Factor Xa production: 0.5 mM, vs scrambled FHA II, 20 min; for Clotting time: mean ± SD of at least 3 experiments
Method: Factor Xa generation was determined by a modification of the method of Miletich et al. (1978), J. Biol. Chem. 253: 6908-6916. THP-1 cells (ATCC; […]) resuspended in RPMI 1640 (Bio Whittaker, Walkersville,Md.) were incubated with 100 μM ADP (Sigma), 2.5 mM CaC2, 1 or 5 μg/ml Factor X (Hematologic Technologies Inc.) and 0.5 mM peptides at room temperature. After 20 minutes, 100 μl of the reaction mixture was transferred to 37° C. and supplemented with 100 μl of bovine factor VII- and Factor X-deficient plasma (Sigma). Coagulation was initiated by adding 100 μl of 25 mM CaC2 and the clotting time was determined. Factor Xa procoagulant activity (ng/ml) was calculated by means of a standard curve constructed by serial concentrations of Factor Xa (Hematologic Technologies Inc.) from 50 to 250 ng/ml.

CSF leukocytosis = experiment: Rat meningitis model (LOS): CSF leukocytosis; type: in vivo, female Wistar rats; details: 4 hours after LOS
Method: The experiments were performed according to established protocols (Wispelway et al., 1988, J. Clin. Invest., 82: 1339-1346). Purified Haemophilus influenzae type b strain DL42 lipooligosaccharide (LOS) was prepared for inoculation by sonication for 30 minutes, dilution to the desired concentration (20 ng/50 μl) in normal saline or PBS, and sonication for an additional 15 to 30 minutes just prior to use.
(§1) Briefly, anesthetized female Wistar rats were placed under a micromanipulator and inoculated intracisternally with a 25 gauge needle. After removal of 50 μl of CSF (without visible blood contamination), rats were inoculated intracisternally with 50 μl (20 ng) of LOS using a 1 ml syringe with a 25 gauge needle. Ten to fifteen minutes after inoculation with LOS, the rats were treated by intravenous administration of the test substance: a solution of an FHA peptide in PBS, a solution of a control peptide in PBS, or an equal volume of PBS alone.
(§2) Three hours after LOS inoculation, 5 μCi of ^125 I-radiolabelled albumin in 50 μl normal saline was administered intravenously. One hour later, CSF was collected via intracisternal puncture and blood samples were collected via intracardiac puncture. CSF leukocytosis was determined by manually counting white blood cells using a hemacytometer, and blood-brain barrier permeability was determined as the percent of radioactivity in whole blood that was present in the CSF. Blood samples were obtained immediately prior to inoculation, immediately prior to treatment, and at 4 hours post-inoculation for determination of peripheral white blood cell concentrations.

[2] = system: neutrophil adherence to human umbilical vein endothelial cells (HUVEC); experiment: Adherence of neutrophils to cultured (TNF alpha stimulated) endothelial cells; type: cell-based
Method: FIG. 17 is a bar graph representation of the inhibition of neutrophil adherence to activated endothelial cells by FHA, Factor X- and FHA- derived peptides. The concentration of inhibiting substances was: peptides 0.5 mM, native FHA 0.3 μM. Values represent the mean±standard deviation of 4 experiments with 5 wells/peptide.
FIG. 18 is a graphical representation of the FHA, FHA- or Factor X-peptide concentration effects on the inhibition of neutrophil adherence to activated endothelial cells. FHA peptide II monomer (Square) and trimer (Diamond), Factor X peptide II (Circle) at 10^-9 μM to 0.5 mM; native FHA at 10^-6 to 3×10^2 μM (triangle). Values represent the mean of 3 experiments with 5 wells/peptide (standard deviations <15%).
FIG. 25 is a graphical representation of the inhibition of neutrophil adherence to activated endothelial cells by FHA and FHA peptides. FIG. 25A: Peptide concentrations were 0.5 mM (FHA 0.2 μM). Values represent mean±standard deviation of four experiments with 5 wells/peptide; FIG. 25B represents the mean±standard deviation of triplicate experiments with 5 wells/peptide. Native FHA (.quadrature.); FHA peptide Ca (.largecircle.).
Human umbilical vein endothelial cells (HUVEC, first passage, Clonetics, San Diego, Calif.) were subcultured at confluence into Terasaki tissue culture wells. After 24 hours, confluent monolayers were used for adherence assays. Monolayers were stimulated with 10 ng/ml TNF alpha (Boehringer Mannheim, Indianapolis, Ind.) at 37° C. for four hours. 30 μl of human neutrophils (10^6 /ml) were labeled with fluorescein by the method of Lo et al. (1991), J. ExP. Med. 173 1493-1500, and preincubated for 15 minutes at 37° C. with 20 μl of peptides (0.5 mM in HAP) or HAP (phosphate buffered saline containing 0.5 mg/ml human serum albumin, 3 mM glucose, and 0.3 U/ml aprotinin) as a control buffer. For some experiments, endothelial cells were pretreated from 10 minutes with Factor X or antibodies against Factor X receptor (EPR-1; Altieri et al. (1990), J. Immunol. 145, 246-253) 12H1 and 9D4 (obtained from Dr. D. Altieri, Scripps Research Institute, LaJolla, Calif.) and then washed. Neutrophils were allowed to adhere to the monolayer for 15 mins. at 37° C. and unbound cells were removed by submersion of the plate in PBS buffer. The number of adherent neutrophils was counted in a 40× microscope field and expressed as a percentage of adherence in control wells with neutrophils treated with HAP buffer alone. The mAb IB4 against CD18 (50 μg/ml; Merck Inc., Rahway, N.J.) served as a positive control.
The ability of FHA peptides and anti-CD18 or anti-Factor X receptor antibodies to interact cooperatively to inhibit neutrophil adherence to endothelial cells was assessed by measuring neutrophil adherence to endothelial cells in the presence of antibody as well as antibody plus peptide. […] Anti-Factor X receptor mAb 12H1 (10 μl of ascites) or 9D4 (10 μg/ml) were added to the endothelial cell monolayers 10 min before the assay. The peptides were added at 5 μg/ml. The results are shown in Table 8 where the numerical values are in % of control binding.
(§3) The procedures for determining the neutrophil adherence to cultured endothelial cells and the transendothelial migration of neutrophils were identical with those of Example 9. Control values were the same as those shown in Example 9.

[3] = system: transendothelial migration of human neutrophils through HUVEC monolayers; experiment: Transendothelial migration (TEM) of neutrophils; type: cell-based; details: peptides 0.01 mM, native FHA 1 μM; at least 3 experiments with 6 wells/peptide
Text: FIG. 26 is a graphical representation of the inhibition of transendothelial migration of neutrophils by FHA peptide Ca, native FHA and mAb IB4 in a concentration dependent fashion. FHA peptide Ca (.largecircle.); intact FHA (.quadrature.); and mAb IB4 (.tangle-solidup.). Values represent mean±standard deviation of at least 3 experiments with 6 wells/peptide.
Transendothelial migration of neutrophils was studied based on a method described by Muller et al. (1992), J. Exp. Med. 176: 819-828. Briefly, human neutrophils suspended in ice-cold Hanks balanced salt solution (HBSS) containing Ca^++ and Mg^++ (Sigma) were fluoresceinated by adding 3.3 μl/ml 5-(and 6-)carboxyfluorescein diacetate, succinimidyl ester (CFSE, Molecular Probes Inc., Oreg.). After incubation for 30 mins. on ice, neutrophils were washed twice in cold HBSS with Ca^++ and Mg^++ and resuspended in cold Medium 199 (M199, Sigma) to a final concentration of 10^6 /ml. Human umbilical vein endothelial cells were subcultured at confluence into 96-well tissue culture plates (Becton Dickinson Labware, Lincoln Park, N.J.) that were coated with hydrated collagen gel (Vitrogen; Collagen Corporation, Palo Alto, Calif.) and fibronectin. Endothelial cells were stimulated with 10 ng/ml TNF-alpha for 4 hours and washed three times with warm M199. Neutrophils (10^6 /ml) were preincubated with 0.01 mM of peptides or with 1 μM of native FHA in M199 for 5 mins. on ice before they were added in 100 μl aliquots to the endothelial cells. For positive control, neutrophils were pre-incubated with 25 μg/ml anti-CD18 mAb IB4. For negative control, neutrophils were treated with 25 μg/ml mAb W6/32 against HLA class I antigen (Dako, Carpinteria, Calif.). The cells were incubated for 1 hour at 37° C., 5% CO2. To terminate transmigration, the supernatant fluid was aspirated and the wells were filled with warm 1 mM EGTA (Sigma) in HBSS without Ca and Mg. The plates were covered with plate sealers (Dynatech, Alexandria, Va.) and centrifuged in an inverted position at 250 g for 3 mins. at room temperature. To remove residual non-transmigrated neutrophils from the endothelial cells, monolayers were washed twice with 200 μl of warm Hanks solution without Ca and Mg. Fluorescence was quantitated using a fluorescence counter (Millipore Cytofluorm™ 2300). The percentage of transmigrated neutrophils was determined by comparing the amount of fluorescence of test wells with that measured in collagen- and fibronectin-coated wells without endothelial cells. […] Percent inhibition of transendothelial migration of neutrophils was calculated by comparing the number of transmigrated cells in wells containing neutrophils treated with peptide to neutrophils treated with M199 alone and arbitrarily set at 100% transendothelial migration (TEM).
as §3

Factor X binding to CR3 = details: cited from earlier work
[4] = system: blood-brain barrier permeability; experiment: Rat meningitis model (LOS): blood-brain barrier permeability (125I-albumin); type: in vivo, female Wistar rats; details: 100 nmol; percent of radioactivity in whole blood present in CSF
Method: as §1, §2

[5] = system: recognition of C3bi by antibody 12.1F9; experiment: Inhibition of binding of 12.1F9 to E^C3bi by peptides; design: species or system human; details: peptides 50 μg/ml; for Adherence index: normalized to control value of 100, 6 experiments
Text: Values are normalized to a control value of 100; data are expressed as the mean±SD of 6 experiments with duplicate wells.

OC[C@H]1O[C@@H](O[C@H]2[C@H](O)[C@@H](O)C(O)O[C@@H]2CO)[C@H](O)[C@@H](O)[C@H]1O (stereo partly drawn) [Lactose]
colonization of rabbit lung (in words) (B. pertussis): decrease colonization of rabbit lung

CC(=O)N[C@@H](CC(C)C)C(=O)N[C@@H](CC(C)C)C(=O)N[C@H](C=O)CCCNC(=N)N [Leupeptin, reference compound]
Factor Xa [1]: < 10.0 ng/mL

Ac-VEEDTKG-NH2 [scrambled ac/am FHA II, VEEDTKG]
Leukocytosis (CSF) (CSF leukocytosis; 600 nmol i.v.): 14,287 ± 10,199 cells/ml
Leukocytosis (CSF) (CSF leukocytosis; 600 nmol i.v., listed as control peptide (scrambled ac/am FHA II)): approximately 14,000 cells/ml

FHA peptide A: synthetic peptide, residues 1055-1099, SEQ ID NO: 20 (IGALKAGAVEAASPRRARRALRQDFFTPGSVVVRAQGNVTVGRGD; UniProt P12255 1055-1099, looked up, fragment)
inhibition of neutrophil adherence ([2]; 45/50-mer peptides, FHA peptide C 1 mg/ml, 0.2 mM): < 15%

GLIQGRSVKVD [FHA Ib]
% Inhibition of TEM [3]: 7 ± 10%
reduction of Factor Xa production [1]: 81%
Factor Xa [1]: 31.3 ng/mL
Clotting time [1]: 38.0 ± 7.6 s

GLYQAKRFKVG [Factor X I]
% Inhibition of TEM [3]: 10 ± 6%
effect on Factor Xa generation (in words) [1]: substantial reduction that did not reach statistical significance
Factor Xa [1]: 37.8 ng/mL
Clotting time [1]: 37.0 ± 4.0 s
inhibition of binding of CR3 bearing cells to Factor X (in words) (Factor X binding to CR3): competitively inhibit the binding of CR3 bearing tissue culture cells to purified Factor X

GRTRG (UniProt P12255 32-36, looked up, fragment) [FHA III]
% Inhibition of TEM [3]: 5 ± 6%
reduction of Factor Xa production [1]: 74%
Factor Xa [1]: 43.4 ng/mL
Clotting time [1]: 36.2 ± 2.7 s
inhibition of neutrophil adherence (in words) ([2]; peptides 0.5 mM (Example 9)): less effective than the corresponding Factor X derived peptide

IDRSMKTRG [Factor X III]
% Inhibition of TEM [3]: 5 ± 7%
effect on Factor Xa generation (in words) [1]: substantial reduction that did not reach statistical significance
Factor Xa [1]: 107.5 ng/mL
Clotting time [1]: 26.5 ± 2.4 s
inhibition of binding of CR3 bearing cells to Factor X (in words) (Factor X binding to CR3): competitively inhibit the binding of CR3 bearing tissue culture cells to purified Factor X

IDVPQHGGAMRDLGIAQGKD [scrambled FHA Ca]
BBB permeability [4]: 6.74 ± 3.48%
Leukocytosis (CSF) (CSF leukocytosis; 100 nmol i.v.): 20,700 ± 7,400 cells/ml
Leukocytosis (CSF) (CSF leukocytosis; 100 nmol i.v., listed as control peptide (scrambled FHA Ca)): approximately 20,000 cells/ml

TRYRGDQDATMS [C3/12, reference compound]
Adherence index [5]: 127 ± 27

VTVGRGDPAQG [FHA RGD]
Adherence index [5]: 85 ± 9

YTVAIAGYALA [C3-pep 1187-1197]
block of binding of 12.1F9 to E^C3bi [5]: up to 60%
Adherence index [5]: 30 ± 16

YTVSADAIALA [FHA 1408-1418]
block of binding of 12.1F9 to E^C3bi [5]: up to 60%
Adherence index [5]: 21 ± 11
